Assays:
[1] = target: T1, DOT1L (Homo sapiens, UniProt Q8TEK3); assay: Methyltransferase selectivity panel (MT HotSpot radioisotope assay), DOT1L; type: biochemical
T1 construct: purchased Reaction Biology (Malvern, PA, USA), contract assay
Method: (§1) The selectivity profile of eltrombopag was investigated by testing the level of inhibition in a methyltransferase panel. The inhibition of 7 […] methyltransferase was tested at Reaction Biology (Malvern, PA, USA) using a gold standard radioisotope-based MT assay (MT HotSpot^TM) with 10 μM of eltrombopag in duplicate.

[2] = target: T2, METTL3-14 complex (Homo sapiens, UniProt Q86U44); assay: METTL3-14 enzyme-based bioluminescence assay (screening assay); type: biochemical; settings: for inhibition at 60 µM: read-out: % inhibition of METTL3-14 at 60 μM, 60 μM compound; for Km: Michaelis-Menten, Figure S1, read-out: Km of METTL3-14 substrates
T2 construct: genes encoding the full-length and MTase domain of human METTL3; METTL3-14 FL: full length of METTL3-14; 10x His (thrombin-cleavable) (cleaved yes); made in house; host or cells: Trichoplusia ni (Hi5) cells co-infected with two baculoviruses (virus made in Sf9)
Method: An enzymatic bioluminescence assay was established to identify the METTL3-14 inhibitor through screening. […] METTL3-14 activity was assessed by measuring the luminescence using a Victor multilabel reader (PerkinElmer, Waltham, MA, USA). The IC50 values were calculated by a nonlinear regression analysis using OriginPro 9.1 software (OriginLab).
To confirm the mechanism of action of eltrombopag in the METTL3-14 complex, 30 nM METTL3-14 and serially diluted eltrombopag were reacted with various concentrations of SAM or RNA substrate and saturating concentrations of the other substrate (3 μM SAM or 2 μM RNA substrate) for 20 min. To evaluate the inhibitory activity in a single form of METTL3 and METTL14, 1 μM of METTL3 and 300 nM of METTL14 were incubated with 1 μM of SAM, 500 nM of RNA substrates, and serially diluted eltrombopag for 5 h. To measure the inhibitory activity in the truncated form of the METTL3-14 complex, 1 μM of the truncated METTL3-14 complex was reacted with 1 μM of SAM, 500 nM of RNA substrates, and serially diluted eltrombopag for 5 h.

[3] = system: MOLM-13 cells; assay: Combinatorial analysis of AML drugs with eltrombopag (EZ-cytox, Synergyfinder); type: cell-based; settings: Homo sapiens, MOLM-13, 72 h, eltrombopag 0 nM; for inhibition at 0.00167 µM: AML drug alone 1.67 nM; for inhibition at 0.005 µM: AML drug alone 5 nM; for inhibition at 0.015 µM: AML drug alone 15 nM; for inhibition at 0.045 µM: AML drug alone 45 nM
Method: The MOLM-13 cells were seeded in white 96-well clear bottomed plates with 50 μL of medium (5000 cells/well). The plated cells were treated with serially diluted eltrombopag and current AML drugs, including venetoclax, cytarabine, gilteritinib, and sorafenib, to a final volume of 100 μL and incubated for 72 h at 37 °C. After incubation, 10 μL of EZ-cytox kit reagent from the EZ-cytox cell viability assay kit (DaeiLab) was added to each well and then incubated for 3 h at 37 °C. The absorbance of metabolically active cells was measured at a wavelength of 450 nm using a Victor multilabel reader (PerkinElmer). The synergy scores of each combination were quantified by the HAS model, ZIP model, Loewe additivity model, and Bliss independence models using Synergyfinder software. Positive or negative synergy scores obtained through these models represent synergy and antagonism, respectively.

[4] = system: MOLM-13 cells; assay: Anti-proliferative assay (EZ-cytox), MOLM-13; type: cell-based; settings: Homo sapiens
Method: The MOLM-13, MOLM-14, HL60, MV4-11, and THP-1 cells were seeded in white 96-well clear bottomed plates with 100 μL of medium (5000 cells/well). The plated cells were treated with serially diluted compounds and incubated for 72 h at 37 °C. After incubation, 10 μL of EZ-cytox kit reagent from the EZ-cytox cell viability assay kit (DaeiLab, Seoul, Korea) was added to each well and then incubated for 3 h at 37 °C. The absorbance of metabolically active cells was measured at a wavelength of 450 nm using a Victor multilabel reader (PerkinElmer). The GI50 values were calculated by nonlinear regression analysis using OriginPro 9.1 software (OriginLab).

[5] = target: T3, MLL4 complex (Homo sapiens, UniProt Q9UMN6); assay: Methyltransferase selectivity panel (MT HotSpot radioisotope assay), MLL4 complex; type: biochemical; settings: positive control
T3 construct: purchased Reaction Biology (Malvern, PA, USA), contract assay
Method: as §1

[6] = target: T4, PRDM9 (Homo sapiens, UniProt Q9NQV7); assay: Methyltransferase selectivity panel (MT HotSpot radioisotope assay), PRDM9; type: biochemical; settings: positive control
T4 construct: purchased Reaction Biology (Malvern, PA, USA), contract assay
Method: as §1

[7] = target: T5, SETD2 (Homo sapiens, UniProt Q9BYW2); assay: Methyltransferase selectivity panel (MT HotSpot radioisotope assay), SETD2; type: biochemical; settings: positive control
T5 construct: purchased Reaction Biology (Malvern, PA, USA), contract assay
Method: as §1

[8] = target: T6, SMYD3 (Homo sapiens, UniProt Q9H7B4); assay: Methyltransferase selectivity panel (MT HotSpot radioisotope assay), SMYD3; type: biochemical
T6 construct: purchased Reaction Biology (Malvern, PA, USA), contract assay
T6 sequence (Q9H7B4 1-428): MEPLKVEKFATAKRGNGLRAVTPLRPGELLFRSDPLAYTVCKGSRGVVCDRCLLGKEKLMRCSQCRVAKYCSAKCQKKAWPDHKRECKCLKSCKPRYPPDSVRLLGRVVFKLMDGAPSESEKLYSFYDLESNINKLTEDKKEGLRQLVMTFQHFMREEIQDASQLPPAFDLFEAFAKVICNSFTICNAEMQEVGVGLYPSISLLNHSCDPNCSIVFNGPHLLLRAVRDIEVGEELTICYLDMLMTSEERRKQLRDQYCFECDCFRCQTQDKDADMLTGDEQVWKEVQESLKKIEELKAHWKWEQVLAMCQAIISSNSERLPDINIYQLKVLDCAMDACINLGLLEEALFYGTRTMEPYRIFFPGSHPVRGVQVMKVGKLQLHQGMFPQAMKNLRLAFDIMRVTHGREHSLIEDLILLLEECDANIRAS
Method: as §1

[9] = system: m^6A/A on poly-A+-enriched mRNA of MOLM-13 cells; parameters: method as in PMID 34237194; settings: cited from earlier work
[10] = system: m^6A methylation of MOLM-13 transcriptome; parameters: method as in PMID 33902106; settings: cited from earlier work

T2 sequence (Q86U44 whole entry, the tested form may be a part): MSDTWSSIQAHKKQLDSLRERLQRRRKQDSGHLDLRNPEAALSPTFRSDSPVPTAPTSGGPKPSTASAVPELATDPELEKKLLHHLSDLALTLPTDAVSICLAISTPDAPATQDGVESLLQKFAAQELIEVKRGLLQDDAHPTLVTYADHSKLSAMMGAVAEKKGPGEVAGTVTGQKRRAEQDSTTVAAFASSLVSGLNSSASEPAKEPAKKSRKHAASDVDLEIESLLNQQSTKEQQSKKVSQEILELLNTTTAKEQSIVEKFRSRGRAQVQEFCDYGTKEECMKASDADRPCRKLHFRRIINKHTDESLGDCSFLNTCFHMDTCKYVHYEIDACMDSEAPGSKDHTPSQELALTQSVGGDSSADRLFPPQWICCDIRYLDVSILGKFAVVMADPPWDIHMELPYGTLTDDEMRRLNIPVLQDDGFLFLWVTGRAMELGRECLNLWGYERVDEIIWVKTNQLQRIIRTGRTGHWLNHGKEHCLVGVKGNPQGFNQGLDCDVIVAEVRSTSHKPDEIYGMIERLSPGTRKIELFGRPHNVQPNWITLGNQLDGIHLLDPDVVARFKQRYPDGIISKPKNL
T2 sequence (Q9HCE5 whole entry partner, the tested form may be a part): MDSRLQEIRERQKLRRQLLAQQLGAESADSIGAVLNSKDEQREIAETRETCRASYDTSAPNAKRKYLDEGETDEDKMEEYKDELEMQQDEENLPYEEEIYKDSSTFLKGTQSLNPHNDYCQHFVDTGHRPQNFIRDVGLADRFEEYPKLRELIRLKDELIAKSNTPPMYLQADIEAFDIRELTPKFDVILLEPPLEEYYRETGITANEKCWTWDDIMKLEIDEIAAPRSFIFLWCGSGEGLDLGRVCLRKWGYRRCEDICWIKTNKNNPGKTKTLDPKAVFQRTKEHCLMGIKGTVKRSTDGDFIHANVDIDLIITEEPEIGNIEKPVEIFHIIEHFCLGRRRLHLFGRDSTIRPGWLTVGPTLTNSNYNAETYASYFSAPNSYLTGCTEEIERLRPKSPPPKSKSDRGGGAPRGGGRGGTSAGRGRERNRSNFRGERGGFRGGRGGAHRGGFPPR
T5 sequence (Q9BYW2 whole entry): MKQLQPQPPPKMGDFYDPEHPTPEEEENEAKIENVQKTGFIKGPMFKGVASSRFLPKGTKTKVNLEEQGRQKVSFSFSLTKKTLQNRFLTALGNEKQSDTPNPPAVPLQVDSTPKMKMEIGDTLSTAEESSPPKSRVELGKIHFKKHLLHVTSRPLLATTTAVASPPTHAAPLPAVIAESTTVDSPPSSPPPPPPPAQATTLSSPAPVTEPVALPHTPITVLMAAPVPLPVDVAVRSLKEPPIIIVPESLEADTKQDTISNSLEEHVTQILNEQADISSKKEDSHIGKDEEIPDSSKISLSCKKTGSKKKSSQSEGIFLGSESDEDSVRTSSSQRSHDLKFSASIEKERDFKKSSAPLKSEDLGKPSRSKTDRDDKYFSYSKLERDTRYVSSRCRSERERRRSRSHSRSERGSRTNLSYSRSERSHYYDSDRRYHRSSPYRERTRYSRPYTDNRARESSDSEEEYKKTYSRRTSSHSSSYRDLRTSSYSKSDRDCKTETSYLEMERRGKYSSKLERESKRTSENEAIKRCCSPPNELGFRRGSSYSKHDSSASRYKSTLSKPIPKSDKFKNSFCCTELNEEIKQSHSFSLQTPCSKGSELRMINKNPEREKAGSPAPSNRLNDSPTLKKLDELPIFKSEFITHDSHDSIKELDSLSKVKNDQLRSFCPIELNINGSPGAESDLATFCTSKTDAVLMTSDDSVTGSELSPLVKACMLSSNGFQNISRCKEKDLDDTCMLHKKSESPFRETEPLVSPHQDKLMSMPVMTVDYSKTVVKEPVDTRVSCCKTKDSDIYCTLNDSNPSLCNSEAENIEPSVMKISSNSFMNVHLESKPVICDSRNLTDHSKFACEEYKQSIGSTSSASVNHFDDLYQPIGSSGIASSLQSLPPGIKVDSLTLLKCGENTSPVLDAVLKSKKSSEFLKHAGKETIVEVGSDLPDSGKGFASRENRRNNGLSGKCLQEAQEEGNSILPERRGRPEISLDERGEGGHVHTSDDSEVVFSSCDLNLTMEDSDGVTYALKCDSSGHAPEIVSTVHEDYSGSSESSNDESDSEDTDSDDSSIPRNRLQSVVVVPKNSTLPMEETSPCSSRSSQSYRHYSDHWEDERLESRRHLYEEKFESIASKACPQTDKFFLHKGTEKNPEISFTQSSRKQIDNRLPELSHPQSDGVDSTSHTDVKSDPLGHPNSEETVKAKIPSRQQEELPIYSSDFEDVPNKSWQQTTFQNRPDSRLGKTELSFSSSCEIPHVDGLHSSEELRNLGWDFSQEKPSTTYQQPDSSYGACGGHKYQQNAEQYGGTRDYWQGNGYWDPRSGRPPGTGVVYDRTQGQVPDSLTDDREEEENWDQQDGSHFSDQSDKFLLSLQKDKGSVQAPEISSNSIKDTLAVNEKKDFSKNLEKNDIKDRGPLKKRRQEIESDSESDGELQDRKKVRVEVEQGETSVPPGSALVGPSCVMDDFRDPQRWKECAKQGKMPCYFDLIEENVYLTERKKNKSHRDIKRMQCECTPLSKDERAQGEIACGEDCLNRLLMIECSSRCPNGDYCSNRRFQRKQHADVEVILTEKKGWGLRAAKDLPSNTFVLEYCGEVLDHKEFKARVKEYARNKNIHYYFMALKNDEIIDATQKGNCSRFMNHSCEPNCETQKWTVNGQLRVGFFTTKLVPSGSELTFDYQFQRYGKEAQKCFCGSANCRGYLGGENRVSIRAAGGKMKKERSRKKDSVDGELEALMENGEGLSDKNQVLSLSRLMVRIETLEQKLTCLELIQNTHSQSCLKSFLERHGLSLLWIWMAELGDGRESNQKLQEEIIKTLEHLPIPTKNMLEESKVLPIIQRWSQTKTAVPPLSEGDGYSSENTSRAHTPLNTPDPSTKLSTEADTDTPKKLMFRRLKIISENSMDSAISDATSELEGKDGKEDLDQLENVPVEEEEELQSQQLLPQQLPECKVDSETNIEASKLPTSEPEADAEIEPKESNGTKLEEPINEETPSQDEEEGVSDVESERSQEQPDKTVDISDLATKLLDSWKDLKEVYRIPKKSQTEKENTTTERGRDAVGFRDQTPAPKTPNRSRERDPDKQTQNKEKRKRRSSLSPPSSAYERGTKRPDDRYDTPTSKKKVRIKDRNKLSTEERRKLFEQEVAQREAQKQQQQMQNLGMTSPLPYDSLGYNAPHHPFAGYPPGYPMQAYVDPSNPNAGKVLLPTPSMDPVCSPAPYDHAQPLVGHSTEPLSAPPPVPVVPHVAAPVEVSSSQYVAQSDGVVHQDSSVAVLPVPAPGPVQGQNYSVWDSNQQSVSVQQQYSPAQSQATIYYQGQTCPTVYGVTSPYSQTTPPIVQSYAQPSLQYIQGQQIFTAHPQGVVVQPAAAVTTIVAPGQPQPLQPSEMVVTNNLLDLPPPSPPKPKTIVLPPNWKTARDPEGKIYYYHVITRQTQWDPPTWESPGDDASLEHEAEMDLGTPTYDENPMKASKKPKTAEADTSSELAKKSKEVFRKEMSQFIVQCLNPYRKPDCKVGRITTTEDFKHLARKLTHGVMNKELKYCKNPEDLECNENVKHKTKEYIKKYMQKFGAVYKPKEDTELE
T1 sequence (Q8TEK3 whole entry): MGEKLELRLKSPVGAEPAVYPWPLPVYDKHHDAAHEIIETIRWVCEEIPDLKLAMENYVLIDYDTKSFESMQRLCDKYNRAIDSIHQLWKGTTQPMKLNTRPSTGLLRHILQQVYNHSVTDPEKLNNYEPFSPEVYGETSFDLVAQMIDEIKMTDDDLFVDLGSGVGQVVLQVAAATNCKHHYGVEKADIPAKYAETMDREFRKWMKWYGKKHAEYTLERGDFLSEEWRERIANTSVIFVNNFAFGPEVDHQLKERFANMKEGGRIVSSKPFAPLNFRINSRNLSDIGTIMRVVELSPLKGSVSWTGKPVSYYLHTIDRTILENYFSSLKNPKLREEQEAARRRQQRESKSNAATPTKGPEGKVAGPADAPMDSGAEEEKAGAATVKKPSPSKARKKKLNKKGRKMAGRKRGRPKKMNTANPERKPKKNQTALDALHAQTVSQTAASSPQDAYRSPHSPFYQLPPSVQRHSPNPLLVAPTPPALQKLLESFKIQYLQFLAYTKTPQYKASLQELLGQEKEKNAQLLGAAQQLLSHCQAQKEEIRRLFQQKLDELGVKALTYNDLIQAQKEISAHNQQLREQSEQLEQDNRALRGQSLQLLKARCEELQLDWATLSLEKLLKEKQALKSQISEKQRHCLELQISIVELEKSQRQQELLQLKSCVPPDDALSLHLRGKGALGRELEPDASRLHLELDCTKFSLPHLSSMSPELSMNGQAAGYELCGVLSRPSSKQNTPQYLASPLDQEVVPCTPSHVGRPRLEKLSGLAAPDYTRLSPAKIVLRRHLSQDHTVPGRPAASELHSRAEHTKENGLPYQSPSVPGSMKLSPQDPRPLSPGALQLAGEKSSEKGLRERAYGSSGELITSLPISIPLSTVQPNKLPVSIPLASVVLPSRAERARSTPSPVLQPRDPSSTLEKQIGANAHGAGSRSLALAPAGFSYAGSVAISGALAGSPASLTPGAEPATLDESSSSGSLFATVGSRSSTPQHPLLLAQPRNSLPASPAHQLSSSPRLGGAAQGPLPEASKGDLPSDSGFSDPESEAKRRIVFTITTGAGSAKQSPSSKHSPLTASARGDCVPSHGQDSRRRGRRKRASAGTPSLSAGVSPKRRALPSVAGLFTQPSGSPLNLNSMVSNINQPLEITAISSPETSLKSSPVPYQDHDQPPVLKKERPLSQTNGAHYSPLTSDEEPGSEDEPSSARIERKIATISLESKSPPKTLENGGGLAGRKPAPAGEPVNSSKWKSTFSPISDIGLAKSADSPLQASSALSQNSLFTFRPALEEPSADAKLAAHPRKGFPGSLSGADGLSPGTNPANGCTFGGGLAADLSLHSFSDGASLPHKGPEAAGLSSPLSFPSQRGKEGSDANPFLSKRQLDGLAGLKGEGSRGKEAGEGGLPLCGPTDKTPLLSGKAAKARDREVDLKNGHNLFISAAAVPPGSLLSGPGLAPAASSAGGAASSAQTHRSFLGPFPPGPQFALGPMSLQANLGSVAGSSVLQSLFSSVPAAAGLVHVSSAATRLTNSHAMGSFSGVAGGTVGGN

CN1C(=O)[C@@]23C[C@]4([C@]56C[C@@]78SS[C@@](CO)(C(=O)N7[C@H]5Nc5ccccc56)N(C)C8=O)c5ccccc5N[C@@H]4N2C(=O)[C@]1(CO)SS3 [Chaetocin]
IC50 [1]: 0.217 µM

CC1=NN(c2ccc(C)c(C)c2)C(=O)/C1=N\Nc1cccc(-c2ccccc2)c1O [Compound 14a]
inhibition at 60 µM [2]: 23.3%

COC(=O)c1cccc(-c2cccc(N/N=C3\C(=O)N(c4ccc(C)c(C)c4)N=C3C)c2O)c1 [Compound 14b]
inhibition at 60 µM [2]: 23.7%

CC1=NN(c2ccc(C)c(C)c2)C(=O)/C1=N\Nc1cccc(-c2cccc(C(=O)O)c2)c1 [Compound 14d]
IC50 ([2]; full length METTL3-14 30 nM, SAM 300 nM, RNA substrate 300 nM, 1 h, read-out: IC50, METTL3-14 inhibition, bioluminescence enzyme based assay): 15.3 µM
fold decrease of METTL3-14 inhibitory activity versus eltrombopag ([2]; relative to eltrombopag): 4 fold

Nc1ccn([C@@H]2O[C@H](CO)[C@@H](O)[C@@H]2O)c(=O)n1 [Cytarabine]
inhibition at 0.00167 µM [3]: 2.2 ± 3.1%
inhibition at 0.005 µM [3]: 20.7 ± 4.33%
inhibition at 0.015 µM [3]: 48.3 ± 1.93%
inhibition at 0.045 µM [3]: 75.7 ± 1.35%

CCc1nc(C(N)=O)c(Nc2ccc(N3CCC(N4CCN(C)CC4)CC3)c(OC)c2)nc1NC1CCOCC1 [Gilteritinib]
GI50 ([4]; MOLM-13, 72 h, positive control, Figure S3): 0.0166 µM

Nc1ncnc2c1ncn2[C@@H]1O[C@H](CSCC[C@H](N)C(=O)O)[C@@H](O)[C@H]1O [SAH, S-(5′-adenosyl)-L-homocysteine]
IC50 [5]: 5.09 µM
IC50 [6]: 4.16 µM
IC50 [7]: 10.8 µM
IC50 [8]: 35.3 µM

C[S+](CC[C@H](N)C(=O)O)C[C@H]1O[C@@H](n2cnc3c(N)ncnc32)[C@H](O)[C@@H]1O (stereo partly drawn) [SAM, S-(5′-adenosyl)-L-methionine]
Km [2]: 0.0986 µM

Nc1ncnc2c1ncn2[C@@H]1O[C@H](C[C@@H](N)CC[C@H](N)C(=O)O)[C@@H](O)[C@H]1O [Sinefungin, sinefungin]
GI50 ([4]; MOLM-13, 72 h): 24.8 ± 1.2 µM

CC1(C)CCN(Cc2ccc(C(=O)NC[C@]3(O)CCCN(c4cc(NCc5ccccc5)ncn4)C3)c(O)c2)CC1 [UZH1a]
maximum m^6A inhibition, previously reported [9]: 60–70%

CC1(C)CCC(CN2CCN(c3ccc(C(=O)NS(=O)(=O)c4ccc(NCC5CCOCC5)c([N+](=O)[O-])c4)c(Oc4cnc5[nH]ccc5c4)c3)CC2)=C(c2ccc(Cl)cc2)C1 [Venetoclax]
inhibition at 0.00167 µM [3]: 12.8 ± 3.69%
inhibition at 0.005 µM [3]: 29.2 ± 0.39%
inhibition at 0.015 µM [3]: 54.5 ± 3.76%
inhibition at 0.045 µM [3]: 77 ± 0.92%

RNA: RNA substrate 5′-ACGAGUCCUGGACUGAAACGGACUUGU-3′ (RNA, backbone not given here)
Km [2]: 0.0705 µM

STM2457
share of hypermethylation, previously reported [10]: about 30%
